Experimental data reported in patent publication US5869490A, “Azaheterocyclymethyl derivatives of 2,3,8,9-tetrahydro-7h-1,4-dioxino (2,3-e) indol-8-one” (American Home Products Corporation, priority 1997, dated 1999).

target: T1, dopamine D2 receptor (Rattus norvegicus, UniProt P61169); assay: Affinity for the dopamine D2 receptor (3H-quinpirole, rat striatal homogenate); type: binding; conditions: not given
T1 construct: homogenized rat striatal brain tissue; from tissue; host or cells: rat striatum homogenate
T1 sequence (P61169 whole entry): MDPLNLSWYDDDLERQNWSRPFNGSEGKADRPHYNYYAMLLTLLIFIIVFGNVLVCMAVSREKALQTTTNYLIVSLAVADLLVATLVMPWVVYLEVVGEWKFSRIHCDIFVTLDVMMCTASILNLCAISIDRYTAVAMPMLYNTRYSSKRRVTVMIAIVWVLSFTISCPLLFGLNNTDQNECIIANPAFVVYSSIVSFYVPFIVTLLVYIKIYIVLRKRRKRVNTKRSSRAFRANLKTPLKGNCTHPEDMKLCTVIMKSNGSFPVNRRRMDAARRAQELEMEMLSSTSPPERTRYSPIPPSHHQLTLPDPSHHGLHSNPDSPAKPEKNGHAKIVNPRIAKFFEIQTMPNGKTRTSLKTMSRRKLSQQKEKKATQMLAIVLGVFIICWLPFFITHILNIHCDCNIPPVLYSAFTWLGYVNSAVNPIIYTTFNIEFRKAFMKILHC
Protocol: Affinity for the dopamine D2 receptor was established by a modification of the standard experimental test procedure of Seemen and Schaus, European Journal of Pharmacology 203: 105-109, 1991, wherein homogenized rat striatal brain tissue is incubated with ^3 H-quinpirole and various concentrations of test compound, filtered and washed and counted in a Betaplate scintillation counter.

Compound | IC50 [nM]
O=C1Cc2c(ccc3c2O[C@@H](CN2CCC4(CC2)C(=O)NCN4c2ccccc2)CO3)N1 [Example 3, 2-(4-Oxo-1-phenyl-1,3,8-triaza-spiro[4,5]dec-8-ylmethyl)-2,3,8,9-tetrahydro-7H-1,4-dioxino-[2,3-e]indol-8-one] | 3.2
O=C1Cc2c(ccc3c2O[C@@H](CN2CCC(n4c(=O)[nH]c5ccccc54)CC2)CO3)N1 [Example 4, 2-[4-(2-Oxo-2,3-dihydro-benzimidazol-1-yl)-piperidin-1-ylmethyl]-2,3,8,9-tetrahydro-7H-1,4-dioxino[2,3-e]indol-8-one] | 4.08
O=C1Cc2c(ccc3c2O[C@@H](CN2CC=C(c4ccccc4)CC2)CO3)N1 [Example 5, 2-(4-Phenyl-3,6-dihydro-2H-pyridin-1-ylmethyl)-2,3,8,9-tetrahydro-7H-1,4-dioxino[2,3-e]indol-8-one] | 1.2

same assay, conditions: rat striatal brain tissue homogenate, 3H-quinpirole; read-out: D2 Receptor Affinity (IC50 (nM))

Compound | IC50 [nM]
O=C1Cc2c(ccc3c2O[C@@H](CN2CCc4ccccc4C2)CO3)N1 [Example 1, 2-(3,4-Dihydro-1H-isoguinolin-2-ylmethyl)-2,3,8,9-tetrahydro-7H-1,4-dioxino[2,3-e]indol-8-one] | 0.35
O=C1Cc2c(ccc3c2O[C@@H](CN2CCC(C(=O)c4ccc(F)cc4)CC2)CO3)N1 [Example 2, 2-(4-(4-Fluoro-benzoyl)-piperidin-1-ylmethyl]-2,3,8,9-tetrahydro-7H-1,4-dioxino[2,3-e]indol-8-one] | 0.73
O=C1Cc2c(ccc3c2O[C@@H](CN2CCN(c4cccc5[nH]ccc45)CC2)CO3)N1 [Example 6, 2-[4-(1H-Indol-4-yl)-piperazin-1-ylmethyl]-2,3,8,9-tetrahydro-7H-1.4-dioxino[2.3-e]indol-8-one] | 4.06
O=C1Cc2c(c(F)cc3c2O[C@@H](CN2CCc4ccccc4C2)CO3)N1 [Example 7, 2-(3,4-Dihydro-1H-isoguinolin-2-ylmethyl)-6-fluoro-2,3,8,9-tetrahydro-7H-1,4-dioxino[2,3-e]indol-8-one] | 0.23
